In one series the test system is mice. As to the kind of experiment: Acute toxicity (LD 50) per os and intraveinous, Litchfield and Wilcoxon method. In kind it is in vivo. As to conditions: for LD 50 I.V.: intraveinous; for LD 50 P.O.: per os. The method, then:
The toxicities were calculated according to the LITCHFIELD and WILCOXON method (J. Pharm. and Exp. Therap. 1949, 96, p. 99, 113).
The products were administered per os and per intraveinous route to mice.

For a further series, the system named is fish chromatophores. As to the kind of experiment: Action on the fish chromatophores (time of blackening). The series is classed as in vivo, Phoxinus Phoxinus Linne. As to conditions: at minimum effectual concentration. The procedure: The physiology of fish chromatophores is dependent on hypothalamic secretions of the lower portion of the diencephalon. The psychotropic and cerebral-orientation drugs can modify the physiology of these regions [J. Thuillier et al. C.R. Soc. […] This test is known to evidence the action of the products on the diencephalon which controls distension and blackening of fish chromatophores. […] The time for the fish blackening to occur was measured. The same test was effected with Meclofexonate.

The test system of a further series is cerebral oedema of rats. As to the kind of experiment: Actions on cerebral oedema caused by triethyltin chloride. As to conditions: 50 mg per kilogram. In kind it is in vivo. The method, then: The alkylated tin compounds are toxic and cause selective oedema of the central nervous system and in particular of the brain (Works of R. KATZMAN et al. Arch. Neurol. 9, 178, 1963). The water content of the cerebral tissue is increased. Similarly, the cerebral sodium content increases, while the potassium is reduced.
100 mg per kg of Meclofenoxate are required to provide the same result.

Series [1] relates to mice intoxicated with aurothioglucose. As to the kind of experiment: Protective effect against the action of aurothioglucose (hyperphagia, stomach weight, weight gain). The series is classed as in vivo. Also noted: Decrease in the stomach weight with respect to the aurothioglucose reference: unit not given here. Conditions: for Action against hyperphagia and weight gain of mice intoxicated with aurothioglucose: given 1/2 hour before aurothioglucose 250 mg/kg; for Weight increase: 15 days after beginning, aurothioglucose alone 49%. The procedure: Hunger and thirst regulation is dependent on stimulating secretions from the hypothalamus. These regulator centers may be disturbed either in acquired manner in genetically obese animals, either consequently to the destruction of the involved centers by selective poisons, such as aurothioglucose.
If 250 mg/kg of aurothioglucose are injected to mice, then the cells of the hypothalamic nuclei will degenerate and cause an hyperphagia syndrome in animals which is evidenced by:
a distension of the stomach,
a considerable increase in ponderal growing.
The mice were treated with one of the products of the invention 1/2 hour before the intraperitoneal injection of aurothioglucose (250 mg/kg).

The next series has as its system rats. As to the kind of experiment: Orientation test after an electroshock. The series is classed as in vivo. The text has this:
This test consists in causing a loss of orientation and motive disorders in rats after repetition of 4 series of electroshock [M. Herold: Acta. Int. Meet. Psycho. Drug.

The test system of series [2] is mice rendered obese by aurothioglucose. As to the kind of experiment: Curative action after development of obesity under the action of aurothioglucose. In kind it is in vivo. Conditions: for Decrease in weight/Aurothioglucose references: 18 days, per os; for Activity compared with Meclofenoxate at 200 mg/kg: in words. The procedure: Mice were rendered obese by intra-peritoneal injections of aurothioglucose (800 mg/kg).
After the development of obesity, a plateau was obtained in the weight curve. There was then selected an homogenous group of mice and treatment with PM 170 and Meclofenoxate was initiated. The results obtained were compared with a group of reference mice treated only with aurothioglucose (ATG controls).

Series [3] concerns genetically obese mice. As to the kind of experiment: Action on genetically obese mice. The series is classed as in vivo. Conditions: for Decrease in weight: obese mice, gastric ingestion, 18 days. The method, then: Finally, gastric ingestion during 18 days of 200 mg/kg of PM 170 causes, in obese mice, a steady decrease in weight of 8.3%, while in the same conditions there occurs, with Meclofenoxate, a decrease in weight of 2.2%.

Another series relates to blood platelet clotting. As to the kind of experiment: Effect against blood platelet clotting (pia-mater vessels). In kind it is in vivo, rabbits. Conditions: dose not stated. The method, then: All the products of the invention prepared according to Examples 1 and 2 at a dose of 10 mg/kg have an effect against plaquette aggregation which was observed on the pia-mater vessels of rabbits [M. M. G. BOZEIX 7th. Int. Congress of Pharmacology, Paris, July 1978].

A short description of a further series: Diuretic action. The series is classed as in vivo.
The subject of series [4] is genetically obese mice. The series can be described thus: Action on genetically obese mice. Also noted: Alimentary consumption: unit not given here. As to conditions: for Weight: in g. The series is classed as in vivo.
In a further series the test system is central nervous system. The series can be described thus: Actions on the central nervous system (overall statement). The series is classed as in vivo. Conditions: versus Meclofenoxate.

“And” between values parts separate entries of the source, which are not always exact repeats. Equal entries are not always repeated.

Consider `CN1CCCCC1COC(=O)COc1ccc(Cl)cc1` (centres unmarked) [PM 172, N-methyl-2-hydroxymethyl-piperidine 4-chloro-phenoxyacetate], for which, in the series on mice, the “LD 50 I.V.” value came to 160 mg and the “LD 50 P.O.” value is given as 1500 mg. In addition, the “Time of occurrence of the blackening” value with fish chromatophores worked out at 60 s. In the series on cerebral oedema of rats, the “Effect on the build up of Na+” value was “limit the build up of Na^+”, the “Effect on the loss of K+” value is listed as “counteract the loss of K^+” and the “Occurrence of the oedema caused by triethyltin chloride” value (“Occurrence of the oedema caused” below) was “considerably reduce the occurrence of the oedema”. Moreover, in [1] (60 mg/kg P.O), the “Decrease in the stomach weight with respect to the aurothioglucose reference” value (shortened to “Decrease in the stomach weight”) was determined as 2.6299. Further, the “Decrease in the stomach weight” value in series [1] (100 mg/kg P.O) came to 2.2727. For the same compound, the “Action against hyperphagia and weight gain of mice intoxicated with aurothioglucose” value (shortened to “Action … with aurothioglucose”) in series [1] was “counteract both hyperphagia and the weight gain”.

On to `CCN1CCCC(OC(=O)COc2ccc(Cl)cc2)C1` (centres unmarked) [PM 168, N-ethyl-3-piperidine 4-chloro-phenoxyacetate], for which, in the series with mice, the “LD 50 I.V.” value is 140 mg and the “LD 50 P.O.” value came out at 1800 mg. Further, the “Time of occurrence of the blackening” value in the series on fish chromatophores is 30 s. In the series with cerebral oedema of rats, the “Effect on the build up of Na+” value was “limit the build up of Na^+”, the “Effect on the loss of K+” value is listed as “counteract the loss of K^+” and the “Occurrence of the oedema caused” value is “considerably reduce the occurrence of the oedema”. For the same compound, the “Decrease in the stomach weight” value in series [1] (100 mg/kg P.O) was determined as 2.5510. Besides, in [1] (150 mg/kg P.O), the “Decrease in the stomach weight” value was 3.37. The “Action … with aurothioglucose” value in series [1] was “counteract both hyperphagia and the weight gain”.

`CN(C)CCOC(=O)COc1ccc(Cl)cc1` [Meclofenoxate, dimethylaminoethyl 4-chlorophenoxyacetate, reference compound]: the “LD 50 I.V.” value in the series with mice was 350 mg. Moreover, the “LD 50 P.O.” value in the series on mice was 1750 mg. Besides, in the series on fish chromatophores, the “Time of occurrence of the blackening” value turned out to be 90 s. Also, in the series with rats (up to 200 mg/kg), the “Efficacy in orientation test after electroshock” value is recorded as “absolutely inefficient”. The “Decrease in the stomach weight” value in series [1] (250 mg/kg P.O) came out at 2.2495; in series [1] (300 mg/kg P.O) it was 1.6129. In series [1], this compound displayed a Weight increase of 45%. The minimal effective dose in [1] (Mus musculus, stomach weight, Table IV, read-out: Dosage at which (only) active) is 250 mg/kg. Besides, the “Times less active than PM 170” value in series [1] (stomach weight, versus PM 170) was found to be 12.4 times. The “Activity to counteract obesity caused by aurothioglucose” value in [1] (versus PM 170, in words) was “less active than PM 170”. Also, the “Decrease in aliment consumption/ATG references” value in series [2] (50 mg/kg) is “inactive”; in series [2] (100 mg/kg), 26%; in [2] (200 mg/kg), 23% and 22.9%. In addition, the “Decrease in weight/Aurothioglucose references” value in series [2] (50 mg/kg per day) was “inactive”; in series [2] (100 mg/kg per day), 10%; in series [2] (200 mg/kg per day), 5%. This compound came in with a Decrease in weight in the series with genetically obese mice [3] (200 mg/kg) of 2.2%. Besides, the “Effect against blood platelet clotting” value in the series with blood platelet clotting was “no effect against blood platelet clotting”. Moreover, the Diuretic action result in “Diuretic action” (dose not stated) was “no effect against blood platelet clotting nor diuretic action”. Further, the Alimentary consumption in the series on genetically obese mice [4] (treated normal females, 300 mg/kg, normal female controls 6.703 ± 0.597) worked out at 5.842 ± 0.842; in the series on genetically obese mice [4] (treated obese females, 300 mg/kg, obese female controls 6.347 ± 0.637), 5.542 ± 0.302. Also, the Weight in the series on genetically obese mice [4] (treated normal females, 300 mg/kg, normal female controls 25.3 ± 0.504) worked out at 24.8 ± 0.602; in the series on genetically obese mice [4] (treated obese females, 300 mg/kg, obese female controls 42.5 ± 0.787), 41.2 ± 0.802.

As to `CN1CCCC(COC(=O)COc2ccc(Cl)cc2)C1` (centres unmarked) [PM 170, N-methyl-3-hydroxymethyl-piperidine (4-chloro-phenoxyacetate)], the “Toxicity compared with Meclofenoxate / overall toxicity” value in the series with mice (in words) is on record as “less toxic than "Meclofenoxate"”. Besides, in the series with mice, the “LD 50 I.V.” value worked out at 175 mg. In addition, the “LD 50 P.O.” value in the series with mice is 2300 mg. The “Time of occurrence of the blackening” value in the series with fish chromatophores was found to be 90 s. Further, the “Effect on the build up of Na+” value in the series with cerebral oedema of rats is “limit the build up of Na^+”. Further, in the series on cerebral oedema of rats, the “Effect on the loss of K+” value is recorded as “counteract the loss of K^+”. Also, the “Occurrence of the oedema caused” value with cerebral oedema of rats was “considerably reduce the occurrence of the oedema”. In the series on rats (100 mg, first 2 series of electroshock), the “Efficacy in orientation test after electroshock” value is “slightly effective”. Further, the results for the “Decrease in the stomach weight” value in series [1] (20 mg/kg P.O), in series [1] (50 mg/kg P.O) and in series [1] (100 mg/kg P.O) were 3.2155, 2.8729 and 4.2287, respectively. Besides, in series [1], the Weight increase is 34%. For the same compound, the “Action … with aurothioglucose” value in series [1] is “counteract both hyperphagia and the weight gain”. The “Activity against increase of the stomach weight distension” value in series [1] (in words) is “very high activity”. In addition, the entries for the “Decrease in aliment consumption/ATG references” value in series [2] (50 mg/kg), in [2] (100 mg/kg) and in series [2] (200 mg/kg) were 10%, 33% and 36%, respectively. In addition, the “Decrease in weight/Aurothioglucose references” value in series [2] (50 mg/kg per day) is 5%; in series [2] (100 mg/kg per day) it was 12%; in series [2] (200 mg/kg per day), 14%. For the same compound, the “Activity compared with Meclofenoxate at 200 mg/kg” value in series [2] (50 mg/kg) is on record as “same activity at 50 mg/kg than Meclofenoxate at 200 mg/kg”; in series [2] (200 mg/kg), “markedly higher than Meclofenoxate at 200 mg/kg”. Besides, in the series with genetically obese mice [3] (genetically obese mice of 42-42.5 g, in words), the “Activity on alimentary consumption and weight development” value is “active both on alimentary consumption and on weight development”. This compound also gave a Decrease in weight with genetically obese mice [3] (200 mg/kg) of 8.3%. In addition, the Weight came to 39.3 ± 0.882 in the series on genetically obese mice [3] (treated obese males, 200 mg/kg, obese male controls 43.3 ± 0.284, in g) and 22.22 ± 0.484 in the series with genetically obese mice [4] (treated normal males, 200 mg/kg, normal male controls 25.34 ± 0.365). In addition, in the series “Diuretic action” (100 mg/kg), the Diuretic action entry is “slight diuretic action”. The “Activity on the central nervous system relative to Meclofenoxate” value with central nervous system is given as “from five to twelve times more active than Meclofenoxate”. The Alimentary consumption in the series on genetically obese mice [4] (treated normal males, 200 mg/kg, normal male controls 6.307 ± 0.746) amounted to 4.716 ± 0.880; in the series with genetically obese mice [4] (treated obese males, 200 mg/kg, obese male controls 6.786 ± 0.853) it was 4.384 ± 0.886.

Source of the values: US4425352A, “Substituted phenoxyacetates of cyclic amines” (Agence Nationale de Valorisation de la Recherche, priority 1980, dated 1984).
